Measured values reported in patent publication US8952024B2, “Herbicidal pyrimidone derivatives” (E I du Pont de Nemours and Company, priority 2009, dated 2015).

What was measured:
Assay type in all cases: in vivo
[1] = system: velvetleaf (Abutilon theophrasti); test: Test A pre-/postemergence plant response; conditions: for Velvetleaf plant response rating: visual injury, 0 to 100 scale (0 no effect, 100 complete control), approx. ten days
Summary of the method: (§1)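 Plants grown from seed in a loam soil and sand mix received test compounds both as a preemergence soil spray and, at the same time, as a postemergence spray at the one- to two-leaf stage. Injury was judged visually against untreated controls roughly ten days later, 0 meaning no effect and 100 complete control.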

[2] = system: large crabgrass (Digitaria sanguinalis); test: Test A pre-/postemergence plant response; conditions: for Crabgrass, Large plant response rating: visual injury, 0 to 100 scale (0 no effect, 100 complete control), approx. ten days
Summary of the method: as §1

[3] = system: giant foxtail (Setaria faberii); test: Test A pre-/postemergence plant response; conditions: for Foxtail, Giant plant response rating: visual injury, 0 to 100 scale (0 no effect, 100 complete control), approx. ten days
Summary of the method: as §1

[4] = system: pigweed (Amaranthus retroflexus); test: Test A pre-/postemergence plant response; conditions: for Pigweed plant response rating: visual injury, 0 to 100 scale (0 no effect, 100 complete control), approx. ten days
Summary of the method: as §1

[5] = system: corn (Zea mays); test: Test A pre-/postemergence plant response; conditions: for Corn plant response rating: visual injury, 0 to 100 scale (0 no effect, 100 complete control), approx. ten days
Summary of the method: as §1

[6] = system: wheat (Triticum aestivum); test: Test A pre-/postemergence plant response; conditions: for Wheat plant response rating: visual injury, 0 to 100 scale (0 no effect, 100 complete control), approx. ten days
Summary of the method: as §1

[7] = system: barnyardgrass (Echinochloa crus-galli); test: Test A pre-/postemergence plant response; conditions: for Barnyardgrass plant response rating: visual injury, 0 to 100 scale (0 no effect, 100 complete control), approx. ten days
Summary of the method: as §1

[8] = system: morningglory (Ipomoea spp.); test: Test A pre-/postemergence plant response; conditions: for Morningglory plant response rating: visual injury, 0 to 100 scale (0 no effect, 100 complete control), approx. ten days
Summary of the method: as §1

[9] = system: rice (Oryza sativa); test: Test B flooded paddy test; conditions: for Plant response rating, Flood, Rice: 250 g ai/ha, flooded paddy test, visual rating on 0 to 100 scale (0 no effect, 100 complete control) after 13 to 15 days; for Plant response rating, Rice: Flood (flooded paddy test), 13 to 15 days; for Rice plant response rating: Flood, 31 g ai/ha, scale 0 to 100 (0 no effect, 100 complete control)
Summary of the method: (§2)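 Visual scores run from 0 (no effect) to 100 (complete control), assigned by comparison with controls 13 to 15 days after treatment. Test compounds went straight into water standing 3 cm above the soil, around plants at the 2-leaf stage kept in a greenhouse.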

[10] = system: umbrella sedge (Cyperus difformis); test: Test B flooded paddy test; conditions: for Plant response rating, Flood, Sedge, Umbrella: 250 g ai/ha, flooded paddy test, visual rating on 0 to 100 scale (0 no effect, 100 complete control) after 13 to 15 days; for Plant response rating, Sedge, Umbrella: Flood (flooded paddy test), 13 to 15 days; for Sedge, Umbrella plant response rating: Flood, 31 g ai/ha, scale 0 to 100 (0 no effect, 100 complete control)
Summary of the method: as §2

[11] = system: barnyardgrass (Echinochloa crus-galli); test: Test B flooded paddy test; conditions: for Plant response rating, Flood, Barnyardgrass: 250 g ai/ha, flooded paddy test, visual rating on 0 to 100 scale (0 no effect, 100 complete control) after 13 to 15 days; for Plant response rating, Barnyardgrass: Flood (flooded paddy test), 13 to 15 days; for Barnyardgrass plant response rating: Flood, 31 g ai/ha, scale 0 to 100 (0 no effect, 100 complete control)
Summary of the method: as §2

[12] = system: ducksalad (Heteranthera limosa); test: Test B flooded paddy test; conditions: for Plant response rating, Flood, Ducksalad: 250 g ai/ha, flooded paddy test, visual rating on 0 to 100 scale (0 no effect, 100 complete control) after 13 to 15 days; for Plant response rating, Ducksalad: Flood (flooded paddy test), 13 to 15 days; for Ducksalad plant response rating: Flood, 31 g ai/ha, scale 0 to 100 (0 no effect, 100 complete control)
Summary of the method: as §2

[13] = Postemergence, 125 g ai/ha, 0 to 100 scale where 0 is no effect and 100 is complete control
[14] = Preemergence, 125 g ai/ha, 0 to 100 scale, 0 = no effect, 100 = complete control
[15] = Preemergence, 500 g ai/ha, 0 to 100 scale, 0 = no effect, 100 = complete control
[16] = 62 g ai/ha, scale of 0 to 100 where 0 is no effect and 100 is complete control
[17] = 125 g ai/ha, scale 0 to 100, 0 is no effect, 100 is complete control

Cc1ccc(Cl)cc1-n1c(-c2cc(F)cc(F)c2)ncc(C(=O)C2=C(O)CCCC2=O)c1=O [Compound 179]
Plant response rating, Velvetleaf [1, 13]: 100 | Velvetleaf plant response rating ([1]; Postemergence, 500 g ai/ha): 100 | Plant response rating, Velvetleaf [1, 14]: 50 | Plant response rating, Velvetleaf [1, 15]: 100 | Plant response rating, Crabgrass, Large [2, 13]: 60 | Crabgrass, Large plant response rating ([2]; Postemergence, 500 g ai/ha): 100 | Plant response rating, Crabgrass, Large [2, 14]: 20 | Plant response rating, Crabgrass, Large [2, 15]: 100 | Plant response rating, Foxtail, Giant [3, 13]: 40 | Foxtail, Giant plant response rating ([3]; Postemergence, 500 g ai/ha): 90 | Plant response rating, Foxtail, Giant [3, 14]: 10 | Plant response rating, Foxtail, Giant [3, 15]: 90 | Plant response rating, Pigweed [4, 13]: 90 | Pigweed plant response rating ([4]; Postemergence, 500 g ai/ha): 100 | Plant response rating, Pigweed [4, 14]: 50 | Plant response rating, Pigweed [4, 15]: 90 | Plant response rating, Corn [5, 13]: 10 | Corn plant response rating ([5]; Postemergence, 500 g ai/ha): 80 | Plant response rating, Corn [5, 14]: 0 | Plant response rating, Corn [5, 15]: 0 | Plant response rating, Wheat [6, 13]: 40 | Wheat plant response rating ([6]; Postemergence, 500 g ai/ha): 80 | Plant response rating, Wheat [6, 14]: 0 | Plant response rating, Wheat [6, 15]: 60 | Plant response rating, Barnyardgrass [7, 13]: 60 | Barnyardgrass plant response rating ([7]; Postemergence, 500 g ai/ha): 90 | Plant response rating, Barnyardgrass [7, 14]: 0 | Plant response rating, Barnyardgrass [7, 15]: 70 | Plant response rating, Morningglory [8, 13]: 60 | Morningglory plant response rating ([8]; Postemergence, 500 g ai/ha): 100 | Plant response rating, Morningglory [8, 14]: 0 | Plant response rating, Morningglory [8, 15]: 40 | Plant response rating, Flood, Rice [9]: 65 | Plant response rating, Rice [9, 16]: 0 | Plant response rating, Rice [9, 17]: 25 | Rice plant response rating [9]: 0 | Plant response rating, Flood, Sedge, Umbrella [10]: 95 | Plant response rating, Sedge, Umbrella [10, 16]: 80 | Plant response rating, Sedge, Umbrella [10, 17]: 85 | Sedge, Umbrella plant response rating [10]: 40 | Plant response rating, Flood, Barnyardgrass [11]: 30 | Plant response rating, Barnyardgrass [11, 16]: 10 | Plant response rating, Barnyardgrass [11, 17]: 20 | Barnyardgrass plant response rating [11]: 0 | Plant response rating, Flood, Ducksalad [12]: 100 | Plant response rating, Ducksalad [12, 16]: 90 | Plant response rating, Ducksalad [12, 17]: 95 | Ducksalad plant response rating [12]: 90

CCc1ccc(-n2c(-c3cccc(Br)c3)ncc(C(=O)C3=C(O)CCCC3=O)c2=O)cc1 [Compound 177]
Plant response rating, Velvetleaf [1, 13]: 90 | Velvetleaf plant response rating ([1]; Postemergence, 500 g ai/ha): 100 | Plant response rating, Velvetleaf [1, 14]: 10 | Plant response rating, Velvetleaf [1, 15]: 40 | Plant response rating, Crabgrass, Large [2, 13]: 30 | Crabgrass, Large plant response rating ([2]; Postemergence, 500 g ai/ha): 70 | Plant response rating, Crabgrass, Large [2, 14]: 0 | Plant response rating, Crabgrass, Large [2, 15]: 10 | Plant response rating, Foxtail, Giant [3, 13]: 0 | Foxtail, Giant plant response rating ([3]; Postemergence, 500 g ai/ha): 40 | Plant response rating, Foxtail, Giant [3, 14]: 0 | Plant response rating, Foxtail, Giant [3, 15]: 20 | Plant response rating, Pigweed [4, 13]: 100 | Pigweed plant response rating ([4]; Postemergence, 500 g ai/ha): 100 | Plant response rating, Pigweed [4, 14]: 0 | Plant response rating, Pigweed [4, 15]: 50 | Plant response rating, Corn [5, 13]: 0 | Corn plant response rating ([5]; Postemergence, 500 g ai/ha): 0 | Plant response rating, Corn [5, 14]: 0 | Plant response rating, Corn [5, 15]: 20 | Plant response rating, Wheat [6, 13]: 0 | Wheat plant response rating ([6]; Postemergence, 500 g ai/ha): 0 | Plant response rating, Wheat [6, 14]: 0 | Plant response rating, Wheat [6, 15]: 0 | Plant response rating, Barnyardgrass [7, 13]: 80 | Barnyardgrass plant response rating ([7]; Postemergence, 500 g ai/ha): 100 | Plant response rating, Barnyardgrass [7, 14]: 0 | Plant response rating, Barnyardgrass [7, 15]: 10 | Plant response rating, Morningglory [8, 13]: 0 | Morningglory plant response rating ([8]; Postemergence, 500 g ai/ha): 10 | Plant response rating, Morningglory [8, 14]: 0 | Plant response rating, Rice [9, 17]: 20 | Rice plant response rating [9]: 15 | Plant response rating, Sedge, Umbrella [10, 17]: 75 | Sedge, Umbrella plant response rating [10]: 60 | Plant response rating, Barnyardgrass [11, 17]: 15 | Barnyardgrass plant response rating [11]: 0 | Plant response rating, Ducksalad [12, 17]: 70 | Ducksalad plant response rating [12]: 30

CCc1ccc(-n2c(-c3cc(F)cc(F)c3)ncc(C(=O)C3=C(O)CCCC3=O)c2=O)cc1 [Compound 158]
Plant response rating, Velvetleaf [1, 13]: 100 | Velvetleaf plant response rating ([1]; Postemergence, 500 g ai/ha): 100 | Plant response rating, Velvetleaf [1, 14]: 50 | Plant response rating, Velvetleaf [1, 15]: 80 | Plant response rating, Crabgrass, Large [2, 13]: 70 | Crabgrass, Large plant response rating ([2]; Postemergence, 500 g ai/ha): 100 | Plant response rating, Crabgrass, Large [2, 14]: 70 | Plant response rating, Crabgrass, Large [2, 15]: 100 | Plant response rating, Foxtail, Giant [3, 13]: 70 | Foxtail, Giant plant response rating ([3]; Postemergence, 500 g ai/ha): 90 | Plant response rating, Foxtail, Giant [3, 14]: 10 | Plant response rating, Foxtail, Giant [3, 15]: 80 | Plant response rating, Pigweed [4, 13]: 100 | Pigweed plant response rating ([4]; Postemergence, 500 g ai/ha): 100 | Plant response rating, Pigweed [4, 14]: 100 | Plant response rating, Pigweed [4, 15]: 100 | Plant response rating, Corn [5, 13]: 10 | Corn plant response rating ([5]; Postemergence, 500 g ai/ha): 50 | Plant response rating, Corn [5, 14]: 0 | Plant response rating, Corn [5, 15]: 20 | Plant response rating, Wheat [6, 13]: 0 | Wheat plant response rating ([6]; Postemergence, 500 g ai/ha): 50 | Plant response rating, Wheat [6, 14]: 0 | Plant response rating, Wheat [6, 15]: 10 | Plant response rating, Barnyardgrass [7, 13]: 90 | Barnyardgrass plant response rating ([7]; Postemergence, 500 g ai/ha): 90 | Plant response rating, Barnyardgrass [7, 14]: 20 | Plant response rating, Barnyardgrass [7, 15]: 80 | Plant response rating, Morningglory [8, 13]: 70 | Morningglory plant response rating ([8]; Postemergence, 500 g ai/ha): 100 | Plant response rating, Morningglory [8, 14]: 0 | Plant response rating, Morningglory [8, 15]: 80 | Plant response rating, Flood, Rice [9]: 85 | Plant response rating, Rice [9, 16]: 30 | Plant response rating, Rice [9, 17]: 40 | Rice plant response rating [9]: 20 | Plant response rating, Flood, Sedge, Umbrella [10]: 100 | Plant response rating, Sedge, Umbrella [10, 16]: 85 | Plant response rating, Sedge, Umbrella [10, 17]: 100 | Sedge, Umbrella plant response rating [10]: 70 | Plant response rating, Flood, Barnyardgrass [11]: 60 | Plant response rating, Barnyardgrass [11, 16]: 20 | Plant response rating, Barnyardgrass [11, 17]: 20 | Barnyardgrass plant response rating [11]: 20 | Plant response rating, Flood, Ducksalad [12]: 100 | Plant response rating, Ducksalad [12, 16]: 75 | Plant response rating, Ducksalad [12, 17]: 100 | Ducksalad plant response rating [12]: 50
